Laboratory results reported in a compilation of properties of binary mixtures (doi:10.1016/j.molliq.2014.07.002).

Assay: xn = mol fraction of the nth substance listed
Details: 101 kPa

CN1CCCC1=O + CCCC[n+]1ccn(C)c1.[Cl-]
x1 = 1
Details	speed of sound [m/s]
308.15 K	1528
313.15 K	1520

CCCC[n+]1ccn(C)c1.[Cl-] + CN1CCCC1=O
speed of sound [m/s]
Details	298.15 K	303.15 K	308.15 K	313.15 K
x1 = 0.0138	1575	1555	1531	1527
x2 = 0	1874	1865	1855	1827
x2 = 0.01	–	1860	1848	–
x2 = 0.0396	1853	1844	–	–
x2 = 0.0814	1837	1829	1819	1796
x2 = 0.1986	1800	1790	1779	1760
x2 = 0.3683	1755	–	–	–
x2 = 0.5125	1723	–	1688	1674
x2 = 0.6367	–	1674	1654	–
x2 = 0.704	1670	1655	–	1623
x2 = 0.7466	1656	–	1621	1611
x2 = 0.8415	1625	1609	–	–
x2 = 0.8939	1606	1588	1568	1559
x2 = 0.9254	–	–	1556	1552
x2 = 0.9721	1579	1562	1539	1536

CN1CCCC1=O + CC[n+]1ccn(C)c1.COS(=O)(=O)[O-]
x1 = 1
Details	speed of sound [m/s]	viscosity [mPa·s]
298.15 K	1572	1.66
303.15 K	1552	1.49
308.15 K	1528	1.39

CC[n+]1ccn(C)c1.COS(=O)(=O)[O-] + CN1CCCC1=O
Details	speed of sound, 298.15 K [m/s]	speed of sound, 303.15 K [m/s]	speed of sound, 308.15 K [m/s]	speed of sound, 313.15 K [m/s]	viscosity, 298.15 K [mPa·s]	viscosity, 303.15 K [mPa·s]	viscosity, 308.15 K [mPa·s]	viscosity, 313.15 K [mPa·s]
x1 = 0.0115	1579	1557	–	1518	2.22	1.88	–	1.6
x2 = 0	1730	1718	1707	1694	84	69	56.7	47.6
x2 = 0.0419	1724	1708	1692	1679	77	63	51.3	42.8
x2 = 0.0861	1718	1702	1685	–	69	56	45.9	–
x2 = 0.2085	1711	1688	1663	1644	53.3	42.1	33.6	27.7
x2 = 0.3825	1700	–	1651	1632	35.9	–	21.8	17.7
x2 = 0.5291	1684	–	1630	1614	23.3	–	14	11.5
x2 = 0.6518	1663	1638	–	1593	14.6	10.8	–	8.2
x2 = 0.718	1649	1622	–	1579	10.5	8.9	–	6.07
x2 = 0.757	1639	1610	1582	1566	9.2	7.3	5.82	5.22
x2 = 0.8502	–	1589	1560	1545	–	4.04	3.61	3.27
x2 = 0.8983	1604	1577	1544	1528	4.01	3.11	2.8	2.56
x2 = 0.9298	1596	–	1536	1524	3.43	–	2.22	2.11
x2 = 0.9743	1582	1560	1534	1522	3.11	2.05	1.86	1.73
